# Results reported in article PMC10923054, “Antiplasmodial peptaibols act through membrane directed mechanisms” (Cell Chemical Biology, 2024).
# Where two headings read alike, the source gives them in different places. Square brackets hold non-standard residues; d marks the D form. Peptide text beside a SMILES is read from it. Phe(ol) = N[C@H](CO)Cc1ccccc1; Leu(ol) = CC(C)C[C@H](N)CO; dIva = CC[C@@](C)(N)C(=O)O; Aib = CC(C)(N)C(=O)O
# Tests used:
# [1] = test system: Dd2 strain parasites, digestive vacuole; test: Transmission electron microscopy of treated parasites; note: key: -: A '–' indicates a negative finding; a single '+' indicates a positive finding; a double '++' indicates a strong positive finding; type: cell-based, P. falciparum; settings: Figure 7A summary
# Experimental: For TEM imaging, samples were prepared as previously described.[67] […] Culture was collected by centrifugation and washed with PBS, pH 7.4. Samples were then fixed in 2% paraformaldehyde, 2.5% glutaraldehyde, in a 0.1 M sodium cacodylate buffer, pH of 7.4, (Electron Microscopy Sciences, Hatfield, PA) and incubated for 2 h at room temp with mild shaking. After fixation, samples were pelleted and stored cold but not frozen in 0.2 M sodium cacodylate buffer prior to staining and embedment in Eponate 12 resin (Ted Pella Inc.). Images were taken using a JEOL 1200 EX transmission electron microscope (JEOL USA Inc., Peabody MA) and processed in AMT Image Capture Engine V602 software (Advanced Microscopy Techniques, Woburn, MA.).
# HepG2 cells = test: HepG2 cytotoxicity assay (MTS); type: cell-based, H. sapiens; settings: for EC50: 48 h, MTS, absorbance 490 nm, highest concentration 25 μM, mean ± SEM, biological triplicate; for cytotoxicity in HepG2: highest concentration tested 25 μM
# Experimental: HepG2 cells are grown at 37°C in DMEM with 10% FBS, 1% Antibiotic/Antimycotic, 0.3% NaHCO3, 5 mM HEPES pH 7.4, and 2 mM L-glutamine as needed in an atmosphere containing 5% CO2.
# The cytotoxicity assay was performed as reported previously.[35] HepG2 cells were seeded at ∼2,250 cells per well 24 h prior to compound addition. Cells were then incubated for an additional 48 h prior to the addition of MTS and absorbance reading at 490 nm on Synergy Neo2 multimode reader (BioTek, Winsooki, VT). Cytotoxicity EC50 values were determined using CDD Vault (https://www.collaborativedrug.com/).
# [2] = test system: synchronized Dd2 parasites; test: Synchronous stage specificity assay (SSA); type: cell-based, P. falciparum
# Experimental: SSA was performed in triplicate as previously described.[64] In summary, Dd2 culture was synchronized by combination of MACS column[65] and sorbitol treatment,[66] and cultured at 1% parasitemia, 2% hematocrit, for 54 h. Compound was added at approximately 6, 18, 30, or 42 HPI, and samples were taken every 12 h after treatment times for Giemsa staining and flow cytometric analysis. HZ NPDG-H and HZ NPDG-I were tested at 5 x EC50, TC HA-II tested at 3 x EC50 due to its higher hemolytic potential. All test values above EC90. Flow samples were fixed in 4% paraformaldehyde, incubated for 30 min at 37°C, then washed 3 times in PBS. Fixed samples were stored at 4°C prior to staining, then resuspended in 0.25% Trition X-100 and incubated for 10 min with shaking. Permeabilized samples were centrifuged and resuspended in a 50 μg/mL RNase solution, and incubated for 3 h at 37°C. After centrifugation, samples were resuspended in a YOYO-1 solution (500 nM final concentration) and read on a CytoFLEX S (Beckman Coulter, Brea, CA) at 488 nm excitation, with 100,000–500,000 events recorded per sample. Infected RBCs were gated using an uninfected RBC control in FlowJo version 10. After gating populations, FITC channel values were extracted from FlowJo and the sum total fluorescence of the iRBCs and the median fluorescence for each timepoint were graphed in Graph Pad Prism Version 9. Assay workflow outline was created using BioRender.
# asynchronous Dd2 culture = test: Killing profile (flow cytometry, SYBR Green I / Mitotracker Deep Red FM); type: cell-based, P. falciparum
# Experimental: Killing profile analyses were performed as previously described,[64] in asynchronous Dd2 culture, starting at approximately 1% parasitemia, 4% hematocrit. Compound was added to culture in majority ring stage and incubated for 12, 24, or 48 h prior to washing and sample collection. Media were then changed normally every 24 h for 6 days. Samples taken each day were used for Giemsa thin smears, and flow cytometric analysis to monitor parasitemia and mitotracker retention. For staining, samples were incubated in a solution of 1:1000 SYBR Green I and 0.6 μM Mitotracker Deep red FM for 30 min then read on a CytoFLEX S (Beckman Coulter, Brea, CA), with 100,000 events recorded per sample. Flow cytometry was gated in FlowJo Version 10 using DHA, vehicle, no Mitotracker, and uninfected RBC controls. Assay workflow outline was created using BioRender.
# [3] = test system: HZ NPDG-I-resistant Dd2 clones (pfmdr1 mutants); type: cell-based, P. falciparum; settings: for Fold Change in IC50 vs the parental line, clone 1B2 / Fold Change in IC50 vs the parental line, clone 1E2 / Fold Change in IC50 vs the parental line, clone 2B3 / Fold Change in IC50 vs the parental line, clone 3A3: Figure S5, 72 h, SYTO 61 flow cytometry; for pfMDR1 Clone Sensitivity: key: -: A '–' indicates a negative finding; a single '+' indicates a positive finding; a double '++' indicates a strong positive finding
# Experimental: Screening of HZ NPDG-I resistant clones was performed at 1% parasitemia, 0.2% hematocrit with flow cytometry in V-shaped 96-well plates. Briefly, compounds were subjected to a 3-fold serial dilution with the highest concentration set at 4 μM or 8 μM. Eleven dilution points were included in addition to no-drug controls. Three technical replicates were set up for each compound at each dilution point. The Dd2-B2 parent line, or the clonal line 1B2, 2B3, 3A3, or 1E2 were added at 0.4% hematocrit and 1% parasitemia to the diluted compounds at a 1:1 ratio. The plate was incubated at 37°C for 72 h in a chamber filled with a hypoxic gas mixture (3% oxygen, 5% carbon dioxide, and 92% nitrogen). After incubation, a blood pellet was formed at the bottom of each well of the 96-well plate. Supernatant was removed without disturbing the pellet, and 20 μl of SYTO 61(1:10,000 dilution; Thermo Fisher Scientific, Cat No. S11343) in PBS was added to each well and incubated for 15 mins at room temperature. The cells in each well were then diluted with 180 μl of PBS and subjected to flow cytometry for parasitemia determination using the HTS (High-Throughput Sampler) of BD FACSCanto II (BD Biosciences, NJ). Flow cytometry data was analyzed using FlowJo Version 10.4.0. Dose response curves were generated and IC50 values obtained with GraphPad Prism Version 9.1.1.
# A clone of the Dd2 strain (Dd2-B2) of P. falciparum was used for in vitro evolution of resistance against harzianin NPDG I. Three flasks of 1.2 x 10^8 parasites were continuously exposed to a stepwise-increasing concentration of the compound over ∼3 months starting from 20 nM up to a final concentration of 100 nM. Once a stable rightward shift in 72 h IC50 was observed, cultures were subjected to limiting dilution to obtained harzianin-resistant clones. Each clone was expanded, phenotyped to confirm resistance, and submitted for whole genome sequencing. An untreated flask of Dd2-B2 parasites was maintained in parallel throughout the course of in vitro selection as a control.
smiles,measurement,setting,value
"CC[C@H](C)[C@H](NC(=O)[C@H](CC(C)C)NC(=O)[C@H](CCC(N)=O)NC(=O)[C@@](C)(CC)NC(C)=O)C(=O)NC(C)(C)C(=O)N1CCC[C@H]1C(=O)N[C@](C)(CC)C(=O)N[C@@H](CC(C)C)C(=O)NC(C)(C)C(=O)N1CCC[C@H]1C(=O)N[C@H](CO)CC(C)C [HZ NPDG-I, harzianin NPDG I] (Ac-[dIva]QLI[Aib]P[dIva]L[Aib]P[Leu(ol)])",DV Abnormalities,[1],+
same,EC50,HepG2 cells,> 25000 nM
same,cytotoxicity in HepG2,HepG2 cells,no cytotoxicity
same,stage of parasite arrest when added at 6 HPI,"[2]; 5 x EC50 (TC HA-II 3 x EC50), Giemsa and YOYO-1 flow cytometry",arrest parasite development in early ring
same,Stage of Inhibition,[2]; Figure 7A summary,Ring
same,Killing Profile,asynchronous Dd2 culture; 10 x EC50,Rapid
same,parasitemia after 12 h incubation and washout,"asynchronous Dd2 culture; 10 x EC50, monitored for 6 days, 3 biological replicates",inhibit parasitemia for all 6 days
same,pfMDR1 Clone Sensitivity,[3]; Figure 7A summary,++
same,"Fold Change in IC50 vs the parental line, clone 1B2",[3],8.70
same,"Fold Change in IC50 vs the parental line, clone 1E2",[3],5.70
same,"Fold Change in IC50 vs the parental line, clone 2B3",[3],7.00
same,"Fold Change in IC50 vs the parental line, clone 3A3",[3],4.50
same,"fold change, clone 1D5","[3]; flask 1, IC50 vs Dd2-B2",4.65
same,"fold change, clone 1H3","[3]; flask 1, IC50 vs Dd2-B2",7.57
same,"fold change, clone Harzianin-Dd2-1B2","[3]; flask 1, IC50 vs Dd2-B2",8.64
same,"fold change, clone Harzianin-Dd2-1C12","[3]; flask 1, IC50 vs Dd2-B2",9.71
same,"fold change, clone Harzianin-Dd2-1E2","[3]; flask 1, IC50 vs Dd2-B2",5.63
same,IC50,"[3]; flask 1, read-out: IC50, clone 1D5",0.249 nM
same,IC50,"[3]; flask 1, read-out: IC50, clone 1H3",0.406 nM
same,IC50,"[3]; flask 1, read-out: IC50, clone Harzianin-Dd2-1B2",0.463 nM
same,IC50,"[3]; flask 1, read-out: IC50, clone Harzianin-Dd2-1C12",0.52 nM
same,IC50,"[3]; flask 1, read-out: IC50, clone Harzianin-Dd2-1E2",0.302 nM
same,"fold change, clone 2B7","[3]; flask 2, IC50 vs Dd2-B2",3.87
same,"fold change, clone 2E9","[3]; flask 2, IC50 vs Dd2-B2",6.77
same,"fold change, clone Harzianin-Dd2-2B3","[3]; flask 2, IC50 vs Dd2-B2",6.98
same,"fold change, clone Harzianin-Dd2-2E8","[3]; flask 2, IC50 vs Dd2-B2",5.31
same,"fold change, clone Harzianin-Dd2-2G7","[3]; flask 2, IC50 vs Dd2-B2",4.60
same,IC50,"[3]; flask 2, read-out: IC50, clone 2B7",0.0859 nM
same,IC50,"[3]; flask 2, read-out: IC50, clone 2E9",0.15 nM
same,IC50,"[3]; flask 2, read-out: IC50, clone Harzianin-Dd2-2B3",0.155 nM
same,IC50,"[3]; flask 2, read-out: IC50, clone Harzianin-Dd2-2E8",0.118 nM
same,IC50,"[3]; flask 2, read-out: IC50, clone Harzianin-Dd2-2G7",0.102 nM
same,"fold change, clone 3A5","[3]; flask 3, IC50 vs DD2-B2",4.30
same,"fold change, clone 3B7","[3]; flask 3, IC50 vs DD2-B2",4.05
same,"fold change, clone 3G7","[3]; flask 3, IC50 vs DD2-B2",3.98
same,"fold change, clone Harzianin-Dd2-3A3","[3]; flask 3, IC50 vs DD2-B2",4.51
same,"fold change, clone Harzianin-Dd2-3C6","[3]; flask 3, IC50 vs DD2-B2",4.68
same,"fold change, clone Harzianin-Dd2-3G11","[3]; flask 3, IC50 vs DD2-B2",3.93
same,IC50,"[3]; flask 3, read-out: IC50, clone 3A5",0.188 nM
same,IC50,"[3]; flask 3, read-out: IC50, clone 3B7",0.177 nM
same,IC50,"[3]; flask 3, read-out: IC50, clone 3G7",0.174 nM
same,IC50,"[3]; flask 3, read-out: IC50, clone Harzianin-Dd2-3A3",0.197 nM
same,IC50,"[3]; flask 3, read-out: IC50, clone Harzianin-Dd2-3C6",0.204 nM
same,IC50,"[3]; flask 3, read-out: IC50, clone Harzianin-Dd2-3G11",0.172 nM
"CC(=O)NC(C)(C)C(=O)N1CCC[C@H]1C(=O)NC(C)(C)C(=O)N[C@@H](C)C(=O)NC(C)(C)C(=O)N[C@@H](C)C(=O)N[C@@H](CCC(N)=O)C(=O)NC(C)(C)C(=O)N[C@H](C(=O)NC(C)(C)C(=O)NCC(=O)N[C@@H](CC(C)C)C(=O)NC(C)(C)C(=O)N1CCC[C@H]1C(=O)N[C@H](C(=O)NC(C)(C)C(=O)NC(C)(C)C(=O)N[C@@H](CCC(=O)O)C(=O)N[C@@H](CCC(N)=O)C(=O)N[C@H](CO)Cc1ccccc1)C(C)C)C(C)C [Alamethicin, reference compound] (Ac-[Aib]P[Aib]A[Aib]AQ[Aib]V[Aib]GL[Aib]PV[Aib][Aib]EQ[Phe(ol)]; N-terminus assumed)",EC50,HepG2 cells,6600 ± 100 nM
same,cytotoxicity in HepG2,HepG2 cells,Minor cytotoxicity
same,"Fold Change in IC50 vs the parental line, clone 1B2",[3],0.55
same,"Fold Change in IC50 vs the parental line, clone 1E2",[3],0.45
same,"Fold Change in IC50 vs the parental line, clone 2B3",[3],0.63
same,"Fold Change in IC50 vs the parental line, clone 3A3",[3],0.54
